Earlier results in patent US20210196697A1, “COMBINATION THERAPIES FOR TREATING BIPOLAR DISORDER AND ADHD, AND METHODS FOR USING THE SAME” (PsychNostics, LLC, priority 2017, published 2021).

Assays:
[1] = system: SK-N-SH Neuroblastoma Cells; conditions: addition of carbachol to [3H]cytidine-prelabeled cells

## [Li] [Li, lithium]
Lithium in BD patients
  therapeutic level: around 1.2 mM
  toxic level: about 2 mM

## COC(=O)C(c1ccccc1)C1CCCCN1 (centres unmarked) [MPH, methylphenidate]
ADHD patients
  effect on MPR: reduces the MPR in a dose dependant manner

## C[N+](C)(C)CCOC(N)=O [carbachol]
[1]
  accumulation of labeled CDP-DAG: four to fivefold increase

## CN1CCN(C2=Nc3cc(Cl)ccc3Nc3ccccc32)CC1 [clozapine]
Serum / blood plasma
  therapeutic level / therapeutic reference range: 200 to 1000 ng/mL
